Reference: patent US20070136834A1, “Method and system for real-time analysis of biosensor data” (priority 2005, published 2007)

Tested on: naturally-occurring algae
Assay: Variable chlorophyll fluorescence induction of naturally-occurring algae in Clinch River water, differential displacement (least-squares) analysis against control curve
Format: cell-based
Excerpt: Primary-source drinking water is monitored at regular intervals, for example every three to five minutes. • 2. Each (analog) chlorophyll fluorescence induction curve that is acquired for each interval is digitized and stored. The shape of each curve is a recording of the physiological status of the algae at that point in time. • 3. For each subsequent recording, such as three to five minutes later, the variable chlorophyll fluorescence induction curve at that time can be compared with the curve that was recorded three to five minutes earlier. • 4. By using a nonlinear least-squares fit of the current data with the previous curve, a quantitative assessment can be made that determines the degree of departure of the current curve as compared to its predecessor. • 5. Based on an algorithm, such as algorithms described herein, an objective real-time assessment of the degree of departure is obtained between the variable fluorescence curves and the correlation of that departure with the possible presence of toxins in the water.
Data analysis typically comprises three steps. […] Third, the set of numbers that comprises the transformation coefficient is analyzed for specific patterns analyzed by custom software to detect “fingerprints” for specific toxins such as chemical toxins. […]

For COP(=S)(OC)Oc1ccc([N+](=O)[O-])cc1 [methyl parathion], which “effect on shape of variable fluorescence induction curve” value is on record?
Its value is “change the shape of the variable fluorescence induction curve”.
